Results: patent US11083725B2 (priority 2014, dated 2021)

System: NHBE cells
Test: Biolog metabolic array: substrate use by NHBE cells with or without CA09 infection
Type: cell-based, human
Conditions: for Substrate use, 590 nm absorbance normalized to zero hour, 1 hr: Biolog PMM2, 1 hr; for Substrate use, 590 nm absorbance normalized to zero hour, 5 hr: Biolog PMM2, 5 hr; for Substrate use, 590 nm absorbance normalized to zero hour, 7 hr: Biolog PMM2, 7 hr; for Substrate use, 590 nm absorbance normalized to zero hour, 0 hr: Biolog PMM2, 0 hr
[1] = Control (uninfected) NHBE cells
[2] = Virus (CA09-infected, MOI 1) NHBE cells
[3] = Virus: CA09-infected NHBE cells, MOI 1, Biolog PMM2
[4] = Virus (CA09, MOI 1) infected NHBE cells

Row | Compound | 590 nm absorbance normalized to zero hour (substrate use), 1 hr [1] | 590 nm absorbance normalized to zero hour (substrate use), 2 hr [1] | 590 nm absorbance normalized to zero hour (substrate use), 3 hr [1] | 590 nm absorbance normalized to zero hour (substrate use), 4 hr [1] | 590 nm absorbance normalized to zero hour (substrate use), 6 hr [1] | 590 nm absorbance normalized to zero hour (substrate use), 8 hr [1] | 590 nm absorbance normalized to zero hour (substrate use), 9 hr [1] | 590 nm absorbance normalized to zero hour (substrate use), 10 hr [1] | 590 nm absorbance normalized to zero hour (substrate use), 11 hr [1] | Substrate use, 590 nm absorbance normalized to zero hour, 1 hr [1] | Substrate use, 590 nm absorbance normalized to zero hour, 5 hr [1] | Substrate use, 590 nm absorbance normalized to zero hour, 7 hr [1] | 590 nm absorbance normalized to zero hour (substrate use), 1 hr [2] | 590 nm absorbance normalized to zero hour (substrate use), 2 hr [2] | 590 nm absorbance normalized to zero hour (substrate use), 3 hr [2] | 590 nm absorbance normalized to zero hour (substrate use), 4 hr [2] | 590 nm absorbance normalized to zero hour (substrate use), 6 hr [2] | 590 nm absorbance normalized to zero hour (substrate use), 8 hr [2] | 590 nm absorbance normalized to zero hour (substrate use), 9 hr [2] | 590 nm absorbance normalized to zero hour (substrate use), 10 hr [2] | other results
1 | O=C(CO)[C@@H](O)[C@H](O)[C@H](O)COP(=O)(O)O [D-Fructose-6-Phosphate] | 1.03 | 0.90 | 0.59 | 0.97 | 0.23 | 0.49 | 0.97 | 0.92 | 0.64 | 1.03 | 0.54 | 1.00 | 0.59 | 0.75 | 0.87 | 0.94 | 1.18 | 1.35 | 1.49 | 1.55 | 590 nm absorbance normalized to zero hour (substrate use), 5 hr [2]: 1.11; 590 nm absorbance normalized to zero hour (substrate use), 7 hr [2]: 1.27; 590 nm absorbance normalized to zero hour (substrate use), 11 hr [2]: 1.65; 590 nm absorbance normalized to zero hour (substrate use), 1 hr [3]: 0.59; 590 nm absorbance normalized to zero hour (substrate use), 2 hr [3]: 0.75; 590 nm absorbance normalized to zero hour (substrate use), 3 hr [3]: 0.87; 590 nm absorbance normalized to zero hour (substrate use), 4 hr [3]: 0.94; 590 nm absorbance normalized to zero hour (substrate use), 5 hr [3]: 1.11; 590 nm absorbance normalized to zero hour (substrate use), 6 hr [3]: 1.18; 590 nm absorbance normalized to zero hour (substrate use), 7 hr [3]: 1.27; 590 nm absorbance normalized to zero hour (substrate use), 8 hr [3]: 1.35; 590 nm absorbance normalized to zero hour (substrate use), 9 hr [3]: 1.49; 590 nm absorbance normalized to zero hour (substrate use), 10 hr [3]: 1.55; 590 nm absorbance normalized to zero hour (substrate use), 11 hr [3]: 1.65
2 | N[C@@H](C(=O)O)[C@@H](O)[C@H](O)[C@H](O)CO [D-Glucosaminic Acid] | 0.86 | 0.94 | 0.90 | 1.21 | 0.36 | 0.97 | 0.98 | 0.97 | 0.39 | 0.86 | 1.22 | 0.95 | 1.69 | 2.21 | 2.51 | 2.69 | 3.31 | 3.57 | 3.89 | 3.88 | 590 nm absorbance normalized to zero hour (substrate use), 0 hr [1]: 1.00; Substrate use, 590 nm absorbance normalized to zero hour, 0 hr [1]: 1.00; Substrate use, 590 nm absorbance normalized to zero hour, 0 hr [4]: 1.00; Substrate use, 590 nm absorbance normalized to zero hour, 1 hr [4]: 1.69; Substrate use, 590 nm absorbance normalized to zero hour, 5 hr [4]: 3.09; Substrate use, 590 nm absorbance normalized to zero hour, 7 hr [4]: 3.47; 590 nm absorbance normalized to zero hour (substrate use), 0 hr [2]: 1.00; 590 nm absorbance normalized to zero hour (substrate use), 11 hr [2]: 3.32
3 | O=C(O)CC(O)(CC(=O)O)C(=O)O [Citric Acid] | 1.40 | 1.41 | 1.16 | 1.15 | 1.07 | 1.05 | 1.05 | 1.05 | 1.04 | 1.40 | 1.22 | 1.04 | 1.54 | 1.94 | 2.21 | 2.31 | 2.74 | 2.95 | 3.10 | 2.94 | 590 nm absorbance normalized to zero hour (substrate use), 5 hr [2]: 2.64; 590 nm absorbance normalized to zero hour (substrate use), 7 hr [2]: 2.85; 590 nm absorbance normalized to zero hour (substrate use), 11 hr [2]: 2.81; 590 nm absorbance normalized to zero hour (substrate use), 1 hr [3]: 1.54; 590 nm absorbance normalized to zero hour (substrate use), 2 hr [3]: 1.94; 590 nm absorbance normalized to zero hour (substrate use), 3 hr [3]: 2.21; 590 nm absorbance normalized to zero hour (substrate use), 4 hr [3]: 2.31; 590 nm absorbance normalized to zero hour (substrate use), 5 hr [3]: 2.64; 590 nm absorbance normalized to zero hour (substrate use), 6 hr [3]: 2.74; 590 nm absorbance normalized to zero hour (substrate use), 7 hr [3]: 2.85; 590 nm absorbance normalized to zero hour (substrate use), 8 hr [3]: 2.95; 590 nm absorbance normalized to zero hour (substrate use), 9 hr [3]: 3.10; 590 nm absorbance normalized to zero hour (substrate use), 10 hr [3]: 2.94; 590 nm absorbance normalized to zero hour (substrate use), 11 hr [3]: 2.81
